# In ChEMBL document CHEMBL3826955, “Steric structure-activity relationship of cyproheptadine derivatives as inhibitors of histone methyltransferase Set7/9” (Bioorg Med Chem, 2016):
# Target: T1, Histone-lysine N-methyltransferase SETD7 (Homo sapiens, UniProt Q8WTS6)
# T1 sequence (Q8WTS6 whole entry): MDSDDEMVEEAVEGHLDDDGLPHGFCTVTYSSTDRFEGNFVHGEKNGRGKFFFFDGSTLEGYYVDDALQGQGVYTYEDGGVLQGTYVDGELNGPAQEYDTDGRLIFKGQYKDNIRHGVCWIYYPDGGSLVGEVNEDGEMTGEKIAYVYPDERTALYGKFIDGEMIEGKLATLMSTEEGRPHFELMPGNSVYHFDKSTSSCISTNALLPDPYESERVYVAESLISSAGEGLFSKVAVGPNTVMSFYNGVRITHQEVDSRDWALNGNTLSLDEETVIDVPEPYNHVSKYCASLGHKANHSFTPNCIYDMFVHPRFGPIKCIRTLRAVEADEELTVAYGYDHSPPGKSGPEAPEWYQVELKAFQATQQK
# Assay: Inhibition of recombinant SET7/9 (unknown origin) using biotinylated histone H3-derived peptide/SAM as substrate after 60 mins by AlphaLISA assay
row,SMILES,IC50
1,CN1CCC(=C2c3ccccc3Sc3ccccc32)CC1 [PIMETHIXENE],4.3 µM
2,CN1CCC(OC2c3ccccc3Oc3ccccc32)CC1,> 100 µM
3,CN1CCC(OC2c3ccccc3C=Cc3ccccc32)CC1,> 100 µM
4,CN1CCC(=C2c3ccccc3C=Cc3ccccc32)CC1 [CYPROHEPTADINE],3.4 µM
5,CN1CCC(OC2c3ccccc3Sc3ccccc32)CC1,> 100 µM

# Results, then the compound that gave them:
row,IC50,SMILES
1,> 100 µM,CN1CCN(C2c3ccccc3Oc3ccccc32)CC1
2,> 100 µM,CN1CCN(C2c3ccccc3C=Cc3ccccc32)CC1
3,> 100 µM,CN1CCN(C2c3ccccc3Sc3ccccc32)CC1
